Experiment [1] addresses T1, Orexin receptor type 2 (Homo sapiens, UniProt O43614). The experiment can be described thus: Counterscreen assay for antagonists of the orexin 1 receptor (OX1R; HCRTR1): Fluorescence-based cell-based dose response assay for antagonists of the orexin 2 receptor (OX2R; HCRTR2), run by assay provider. In kind it is functional. A general note: A counterscreen serves to expose hits that act by an unwanted route or on another target.

The target of experiment [2] is T2, Orexin/Hypocretin receptor type 1 (Homo sapiens, UniProt O43613).
T2 sequence (O43613 whole entry): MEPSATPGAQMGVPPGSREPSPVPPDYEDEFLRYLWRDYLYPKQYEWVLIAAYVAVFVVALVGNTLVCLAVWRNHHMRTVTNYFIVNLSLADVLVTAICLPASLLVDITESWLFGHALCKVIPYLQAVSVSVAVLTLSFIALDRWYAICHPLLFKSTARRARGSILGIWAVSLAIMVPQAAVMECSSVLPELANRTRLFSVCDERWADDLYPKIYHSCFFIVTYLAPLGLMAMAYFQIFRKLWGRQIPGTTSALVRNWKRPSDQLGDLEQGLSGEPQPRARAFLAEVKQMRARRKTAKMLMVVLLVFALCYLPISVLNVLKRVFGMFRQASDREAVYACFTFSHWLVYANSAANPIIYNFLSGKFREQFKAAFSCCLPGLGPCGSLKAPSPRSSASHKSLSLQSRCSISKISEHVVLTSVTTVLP
The experiment can be described thus: Homogeneous Time Resolved Fluorescence (HTRF)-based cell-based high throughput dose response assay for antagonists of the orexin 1 receptor (OX1R; HCRTR1). [Related pubchem assays (depositor defined):AID434989, AID435008, AID463079, AID485270, AID492963, AID492964, AID492965, AID493232, AID504717, AID504718]. It is filed as functional. On the technique in general: In TR-FRET formats the signal depends on donor and acceptor labels being close together.

The next experiment deals with CHO-K1. In words: Counterscreen for antagonists of the orexin 1 receptor (OX1R; HCRTR1): Homogeneous time resolved fluorescence (HTRF)-based cell-based dose response assay to identify antagonists of the parental CHO-K1 cell line. [Related pubchem assays (depositor defined):AID434989, AID435008, AID463079, AID485270, AID492963, AID492964, AID492965, AID493232, AID504699, AID504701]. It is filed as functional. The conditions noted are these: Cricetulus griseus.

Experiment [3] in a line: Counterscreen for antagonists of the orexin 1 receptor (OX1R; HCRTR1): Fluorescence-based cell-based high throughput dose response assay to identify antagonists of the parental CHO cell line. [Related pubchem assays (depositor defined):AID434989, AID435008, AID463079, AID485270, AID492963, AID492964, AID492965, AID493232, AID504699, AID504701]. In kind it is functional.

In experiment [4] the target is T1, Orexin receptor type 2. The experiment can be described thus: Counterscreen assay for antagonists of the orexin 1 receptor (OX1R; HCRTR1): Homogeneous Time Resolved Fluorescence (HTRF)-based cell-based dose response assay for antagonists of the orexin 2 receptor (OX2R; HCRTR2), run by assay provider. In kind it is functional.
The target of experiment [5] is T2, Orexin/Hypocretin receptor type 1. The experiment can be described thus: Fluorescence-based cell-based high throughput dose response assay for antagonists of the orexin 1 receptor (OX1R; HCRTR1). [Related pubchem assays (depositor defined):AID434989, AID435008, AID463079, AID485270, AID492963, AID492964, AID492965, AID493232, AID504717, AID504718]. It is filed as functional.

The nature of experiment [6]: Vero E6 cell cytotoxicity, dose response, cytotoxicity control for non-replicating M. tuberculosis project, secondary assay (AID 492998). It is filed as functional, VeroE6. The conditions noted are these: Vero C1008.
A short description of experiment [7]: A Cell Based Secondary Assay to Explore Cytotoxicity in HepG2 Cells of Compounds that Modulate Mycobacterium tuberculosis in Media Containing Glycerol versus Media without Glycerol (2). In kind it is functional.
Experiment [8] can be described thus: control 3'UTR Renilla luciferase suppression, dose response, counter-screen for Shn3 inhibitor project, cell-based, Clone20-Shn3RL, cherry-picked (AID 624133). It is filed as functional.
The nature of experiment [9]: Shn3 3'UTR reporter inhibitors, dose response, cell-based, Clone20 osteoblasts, firefly luciferase, cherry-picked (AID 624132).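 Note: firefly luciferase luminescence from reporter carrying the Shn3 3'UTR in osteoblasts.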 In kind it is functional.
A short description of experiment [10]: A Cell Based Secondary Assay to Explore Cytotoxicity in THP-1 Cells of Compounds that Modulate Mycobacterium tuberculosis in Media Containing Glycerol versus Media without Glycerol (2). In kind it is functional.
A short description of experiment [11]: THP-1 cell cytotoxicity, dose response, cytotoxicity control for non-replicating M. tuberculosis project (AID 489025). In kind it is functional.
A short description of experiment [12]: Vero cell cytotoxicity, cytotoxicity control for M. tuberculosis inhibitor project, purified and synthesized samples, set 3 (AID 504684). It is filed as functional. Particulars: […].
Another experiment in a line: cells. It is filed as functional.
A short description of experiment [13]: microbe, parasite or virus in culture. In kind it is functional. The conditions noted are these: Mycobacterium tuberculosis.
The target in experiment [14] is Cyclin-dependent kinase 5 (Homo sapiens, UniProt Q00535). It is filed as functional.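 Note: CDK5 measured as one member of a kinase profiling panel.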
Sequence of Cyclin-dependent kinase 5 (Q00535 whole entry): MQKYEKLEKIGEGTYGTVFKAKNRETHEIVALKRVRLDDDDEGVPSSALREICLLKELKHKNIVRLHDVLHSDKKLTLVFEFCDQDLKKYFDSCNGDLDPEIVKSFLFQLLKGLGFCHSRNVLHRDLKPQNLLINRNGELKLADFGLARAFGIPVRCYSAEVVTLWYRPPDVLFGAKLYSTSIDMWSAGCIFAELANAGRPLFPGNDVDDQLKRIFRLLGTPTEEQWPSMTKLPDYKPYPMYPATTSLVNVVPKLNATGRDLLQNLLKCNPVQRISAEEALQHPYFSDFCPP
For experiment [15], the target named is Cyclin-dependent kinase 8 (Homo sapiens, UniProt P49336). In words: Navigating the Kinome. Panel member name: CDK8. It is filed as functional.
Sequence of Cyclin-dependent kinase 8 (P49336 whole entry): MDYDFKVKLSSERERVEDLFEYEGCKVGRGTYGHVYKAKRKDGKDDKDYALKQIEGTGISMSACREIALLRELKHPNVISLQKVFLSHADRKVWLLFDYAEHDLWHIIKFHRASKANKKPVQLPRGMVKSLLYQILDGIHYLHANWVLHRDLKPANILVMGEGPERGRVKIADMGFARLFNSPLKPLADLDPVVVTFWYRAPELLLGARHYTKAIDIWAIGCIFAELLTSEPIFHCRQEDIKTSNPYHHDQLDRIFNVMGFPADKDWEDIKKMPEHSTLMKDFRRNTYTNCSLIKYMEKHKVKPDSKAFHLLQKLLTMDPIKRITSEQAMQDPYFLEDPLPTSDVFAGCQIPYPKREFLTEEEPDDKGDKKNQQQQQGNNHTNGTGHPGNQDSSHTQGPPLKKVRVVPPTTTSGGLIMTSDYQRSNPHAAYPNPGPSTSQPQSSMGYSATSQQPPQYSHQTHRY
The target in experiment [16] is Serine/threonine-protein kinase TAO1 (Homo sapiens, UniProt Q7L7X3). It is filed as functional.
Sequence of Serine/threonine-protein kinase TAO1 (Q7L7X3 whole entry, canonical isoform): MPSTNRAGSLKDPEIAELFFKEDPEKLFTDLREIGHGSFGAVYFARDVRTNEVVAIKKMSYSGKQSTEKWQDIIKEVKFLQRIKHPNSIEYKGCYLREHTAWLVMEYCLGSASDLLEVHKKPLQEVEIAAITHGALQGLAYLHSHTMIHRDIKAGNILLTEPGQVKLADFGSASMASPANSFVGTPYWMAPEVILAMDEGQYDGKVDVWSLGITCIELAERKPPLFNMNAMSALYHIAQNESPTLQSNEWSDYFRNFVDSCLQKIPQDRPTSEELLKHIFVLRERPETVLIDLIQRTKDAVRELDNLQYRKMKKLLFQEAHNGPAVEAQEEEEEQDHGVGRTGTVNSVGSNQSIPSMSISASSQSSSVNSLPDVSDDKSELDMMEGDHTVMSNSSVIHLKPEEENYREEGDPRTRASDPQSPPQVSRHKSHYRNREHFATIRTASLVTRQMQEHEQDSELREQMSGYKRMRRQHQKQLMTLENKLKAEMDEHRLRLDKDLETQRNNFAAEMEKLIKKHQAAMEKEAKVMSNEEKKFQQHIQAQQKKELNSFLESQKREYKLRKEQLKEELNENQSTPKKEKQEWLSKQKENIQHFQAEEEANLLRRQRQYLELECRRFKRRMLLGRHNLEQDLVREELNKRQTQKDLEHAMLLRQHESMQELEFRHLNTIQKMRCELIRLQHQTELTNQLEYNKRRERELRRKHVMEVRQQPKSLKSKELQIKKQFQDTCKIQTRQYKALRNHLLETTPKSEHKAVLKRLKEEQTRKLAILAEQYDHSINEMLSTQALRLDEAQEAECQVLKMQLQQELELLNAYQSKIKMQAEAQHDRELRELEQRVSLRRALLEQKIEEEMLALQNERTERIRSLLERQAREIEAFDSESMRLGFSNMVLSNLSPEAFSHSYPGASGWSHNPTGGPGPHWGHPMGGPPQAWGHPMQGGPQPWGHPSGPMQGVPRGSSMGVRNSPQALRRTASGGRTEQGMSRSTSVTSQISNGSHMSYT
Experiment [17] deals with Casein kinase I isoform alpha (Homo sapiens, UniProt P48729). It is filed as functional.
Sequence of Casein kinase I isoform alpha (P48729 whole entry, canonical isoform): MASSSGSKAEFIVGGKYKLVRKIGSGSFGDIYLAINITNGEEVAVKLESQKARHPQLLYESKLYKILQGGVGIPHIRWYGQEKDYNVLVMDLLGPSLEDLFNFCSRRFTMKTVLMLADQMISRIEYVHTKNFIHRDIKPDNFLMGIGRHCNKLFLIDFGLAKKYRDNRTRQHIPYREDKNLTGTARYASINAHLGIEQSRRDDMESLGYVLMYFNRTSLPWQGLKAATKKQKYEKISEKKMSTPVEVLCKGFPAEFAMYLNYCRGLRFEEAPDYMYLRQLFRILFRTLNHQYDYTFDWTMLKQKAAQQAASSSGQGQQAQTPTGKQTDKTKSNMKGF
Experiment [18] has as its target Melanin-concentrating hormone receptor 1 (Homo sapiens, UniProt Q99705). The experiment can be described thus: Late-stage fluorescence-based counterscreen for antagonists of the G-protein coupled receptor 7 (GPR7): cell-based dose response assay to identify antagonists of the melanin-concentrating hormone receptor 1 (MCHR1) Set 6. In kind it is functional.
In experiment [19] the target is Neuropeptides B/W receptor type 1 (Homo sapiens, UniProt P48145). In words: GPR7 antagonist potency, late-stage follow-up, cell-based, fluorescence, dose response, set 6 (AID 588583). It is filed as functional.
Sequence of Neuropeptides B/W receptor type 1 (P48145 whole entry): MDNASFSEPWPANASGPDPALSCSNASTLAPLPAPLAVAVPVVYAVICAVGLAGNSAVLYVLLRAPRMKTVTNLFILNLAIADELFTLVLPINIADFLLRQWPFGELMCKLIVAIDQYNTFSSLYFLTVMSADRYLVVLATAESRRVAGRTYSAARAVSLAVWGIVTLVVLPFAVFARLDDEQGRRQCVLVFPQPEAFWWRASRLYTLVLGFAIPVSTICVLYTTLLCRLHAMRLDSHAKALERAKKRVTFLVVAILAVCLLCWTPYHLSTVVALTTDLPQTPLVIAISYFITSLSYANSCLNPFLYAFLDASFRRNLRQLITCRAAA
Experiment [20] addresses DNA dC->dU-editing enzyme APOBEC-3A (Homo sapiens, UniProt P31941). In words: SAR analysis of small molecule inhibitors of APOBEC3A DNA Deaminase via a fluorescence-based single-stranded DNA deaminase assay. The conditions noted are these: read-out: IC50_Mean. It is filed as functional.
For experiment [21], the target named is DNA dC->dU-editing enzyme APOBEC-3G (Homo sapiens, UniProt Q9HC16). The experiment can be described thus: APOBEC3G deaminase inhibitors, SAR follow-up, biochemical, fluorescence, single-stranded DNA substrate (AID 602136). Particulars: read-out: IC50_Mean. In kind it is functional.
Sequence of DNA dC->dU-editing enzyme APOBEC-3G (Q9HC16 whole entry): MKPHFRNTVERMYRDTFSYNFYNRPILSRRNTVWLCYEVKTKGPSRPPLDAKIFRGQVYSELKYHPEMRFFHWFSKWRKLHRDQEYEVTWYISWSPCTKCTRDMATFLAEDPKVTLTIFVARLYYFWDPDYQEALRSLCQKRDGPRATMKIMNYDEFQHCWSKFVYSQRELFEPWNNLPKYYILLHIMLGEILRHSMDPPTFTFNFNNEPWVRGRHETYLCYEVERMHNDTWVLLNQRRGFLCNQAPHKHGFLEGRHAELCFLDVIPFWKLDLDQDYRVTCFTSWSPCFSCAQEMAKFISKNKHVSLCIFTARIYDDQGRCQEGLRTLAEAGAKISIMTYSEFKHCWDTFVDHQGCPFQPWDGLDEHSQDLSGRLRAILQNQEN
The target of experiment [22] is Cell division cycle 7-related protein kinase (Homo sapiens, UniProt O00311). It is filed as functional.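 Note: value obtained from a kinome-wide kinase panel.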
Sequence of Cell division cycle 7-related protein kinase (O00311 whole entry): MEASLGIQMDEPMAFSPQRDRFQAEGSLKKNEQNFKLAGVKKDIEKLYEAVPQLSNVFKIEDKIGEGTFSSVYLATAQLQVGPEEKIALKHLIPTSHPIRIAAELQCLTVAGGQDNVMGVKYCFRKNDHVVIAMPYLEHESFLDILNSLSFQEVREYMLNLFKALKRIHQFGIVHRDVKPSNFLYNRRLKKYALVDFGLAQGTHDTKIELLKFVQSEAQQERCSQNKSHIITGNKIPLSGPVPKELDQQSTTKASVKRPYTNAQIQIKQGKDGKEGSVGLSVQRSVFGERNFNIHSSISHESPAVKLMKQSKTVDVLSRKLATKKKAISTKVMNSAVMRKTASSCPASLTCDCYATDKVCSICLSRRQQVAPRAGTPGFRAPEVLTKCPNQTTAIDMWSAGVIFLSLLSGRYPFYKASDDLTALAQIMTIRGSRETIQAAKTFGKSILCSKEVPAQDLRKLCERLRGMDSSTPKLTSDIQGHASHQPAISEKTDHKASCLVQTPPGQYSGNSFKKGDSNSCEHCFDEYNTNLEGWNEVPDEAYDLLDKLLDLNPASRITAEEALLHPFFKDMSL
Experiment [23] deals with Cyclin-dependent kinase 19 (Homo sapiens, UniProt Q9BWU1). In words: Navigating the Kinome. Panel member name: CDC2L6. In kind it is functional.
Sequence of Cyclin-dependent kinase 19 (Q9BWU1 whole entry): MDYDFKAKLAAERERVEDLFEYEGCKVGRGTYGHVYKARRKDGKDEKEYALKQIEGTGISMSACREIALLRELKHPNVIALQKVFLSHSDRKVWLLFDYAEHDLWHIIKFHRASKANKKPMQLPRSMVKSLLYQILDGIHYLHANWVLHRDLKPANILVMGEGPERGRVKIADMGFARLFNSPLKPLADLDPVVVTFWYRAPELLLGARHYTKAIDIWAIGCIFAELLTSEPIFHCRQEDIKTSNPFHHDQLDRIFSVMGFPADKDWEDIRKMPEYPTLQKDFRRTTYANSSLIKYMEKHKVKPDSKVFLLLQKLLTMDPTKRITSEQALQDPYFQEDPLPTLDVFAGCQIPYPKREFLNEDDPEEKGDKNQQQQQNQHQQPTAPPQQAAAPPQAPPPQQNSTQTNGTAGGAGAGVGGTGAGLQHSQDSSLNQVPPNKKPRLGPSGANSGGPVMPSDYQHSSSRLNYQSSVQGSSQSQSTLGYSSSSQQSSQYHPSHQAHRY

Active and inactive are the calls of the source.

T1 sequence (O43614 whole entry): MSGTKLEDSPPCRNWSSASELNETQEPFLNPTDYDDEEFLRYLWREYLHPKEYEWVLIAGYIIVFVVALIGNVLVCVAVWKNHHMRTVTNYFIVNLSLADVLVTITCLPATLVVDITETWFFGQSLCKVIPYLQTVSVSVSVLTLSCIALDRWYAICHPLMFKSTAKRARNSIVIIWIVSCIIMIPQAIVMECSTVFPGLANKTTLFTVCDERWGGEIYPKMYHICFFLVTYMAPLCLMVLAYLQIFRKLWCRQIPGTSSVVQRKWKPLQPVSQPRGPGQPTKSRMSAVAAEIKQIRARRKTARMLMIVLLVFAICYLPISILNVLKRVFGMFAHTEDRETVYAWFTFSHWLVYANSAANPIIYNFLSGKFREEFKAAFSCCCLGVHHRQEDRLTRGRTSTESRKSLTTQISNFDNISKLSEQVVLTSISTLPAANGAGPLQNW
Sequence of DNA dC->dU-editing enzyme APOBEC-3A (P31941 whole entry): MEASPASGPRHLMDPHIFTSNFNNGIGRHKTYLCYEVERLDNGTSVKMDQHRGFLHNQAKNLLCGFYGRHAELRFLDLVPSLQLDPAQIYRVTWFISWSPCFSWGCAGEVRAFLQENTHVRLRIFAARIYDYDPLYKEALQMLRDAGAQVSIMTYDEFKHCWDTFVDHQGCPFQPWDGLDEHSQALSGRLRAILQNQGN
Sequence of Melanin-concentrating hormone receptor 1 (Q99705 whole entry): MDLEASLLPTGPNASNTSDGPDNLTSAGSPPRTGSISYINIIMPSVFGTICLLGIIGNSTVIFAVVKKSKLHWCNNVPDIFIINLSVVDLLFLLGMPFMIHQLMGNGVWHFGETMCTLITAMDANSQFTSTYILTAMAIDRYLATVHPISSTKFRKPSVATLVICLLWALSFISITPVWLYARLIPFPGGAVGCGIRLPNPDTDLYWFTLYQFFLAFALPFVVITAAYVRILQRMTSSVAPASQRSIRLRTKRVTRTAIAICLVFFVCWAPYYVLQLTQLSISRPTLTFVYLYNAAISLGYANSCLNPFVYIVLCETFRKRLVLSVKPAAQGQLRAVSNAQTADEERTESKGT

Take `CSc1cccc(NC(=O)C2CCCN2S(=O)(=O)c2ccc(Br)s2)c1` (stereo not given): the IC50 was 0.4 µM (active) on Orexin receptor type 2 [1]; 0.0933 µM (active) in [2]; > 66.2 µM (inactive) in the experiment on CHO-K1; 27.8 µM (inactive) in experiment [3]; 0.34 µM (active) at Orexin receptor type 2 [4]; 0.8 µM (active) in experiment [5].

A word on the AC50: it is the midpoint of the concentration-response curve, whichever way the signal moves. In the case of `Cc1ccc2c(c1)/C(=C1\C(=O)Nc3ccccc31)C(=O)N2C`, the CC50 in experiment [6] was 4.76 µM (active); in experiment [7] it was 12.9 µM (active); in experiment [10] it was 13.4 µM (active); in experiment [11] it was 27 µM (active); in [12] it was 4.55 µM (active); in [13], 16.3 µM (active). For the same compound, the results for the concentration at half-maximal activity (AC50) in experiment [8] and in experiment [9] were 12.1 µM (active) and 8.85 µM (active), respectively. Besides, the IC50 in the experiment “cells” is 1.89 µM (active).

As a reminder, the Ki is the dissociation constant of the complex between target and ligand, obtained from inhibition or displacement. Turning to `CC(C)(C)c1cc(NC(=O)C(=O)c2cccc3ccccc23)n(-c2ccc(OCCC(N)=O)cc2)n1`, the inhibition constant (Ki) in [14] is 1.58 µM (active); in experiment [15] it was 2 µM (active); in [16], > 6.31 µM (inactive); in experiment [17], 3.98 µM (active).

`CC(C)(C)OC(=O)C(C#N)c1c(Cl)cnn(Cc2cccc3ccccc23)c1=O` (stereo not given): the IC50 in experiment [18] and in [19] was 0.682 µM (active) in each case.

With `COc1cc2c(c3oc(=O)c4c(c13)CCC4)C=CC(C)(C)O2`, the IC50 in [20] and in experiment [21] was > 99 µM (inactive) in each case.

`O=C(O)c1ccccc1Nc1ccnc(NCc2ccccc2)n1`: the Ki in experiment [22] was 0.0501 µM (active); in [23], > 100 µM (inactive).
